How the values were obtained:
Assay in all cases: relative viability (nuclei count vs DMSO), 5 days (fraction); higher = more cells survive
Linsitinib + Bortezomib = compound: C[C@]1(O)C[C@@H](c2nc(-c3ccc4ccc(-c5ccccc5)nc4c3)c3c(N)nccn32)C1 [Linsitinib] + CC(C)C[C@H](NC(=O)[C@H](Cc1ccccc1)NC(=O)c1cnccn1)B(O)O [Bortezomib] (partner 0.002 µM)
Outline: (§1)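 Values are medians from duplicate plates. Each reflects relative viability, defined as the nuclei count of treated wells over that of vehicle wells. Lung cancer cell lines in 1536-well plates were pin-tool dosed one day after seeding with one drug alone or with a fixed anchor-drug dose plus five library-drug doses (not always all listed) in √10 steps, then fixed, stained and imaged at 4× after 5 days.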

Linsitinib + Navitoclax = compound: C[C@]1(O)C[C@@H](c2nc(-c3ccc4ccc(-c5ccccc5)nc4c3)c3c(N)nccn32)C1 [Linsitinib] + CC1(C)CCC(c2ccc(Cl)cc2)=C(CN2CCN(c3ccc(C(=O)NS(=O)(=O)c4ccc(N[C@H](CCN5CCOCC5)CSc5ccccc5)c(S(=O)(=O)C(F)(F)F)c4)cc3)CC2)C1 [Navitoclax] (partner 0.5 µM)
Outline: as §1

Linsitinib + Decitabine = compound: C[C@]1(O)C[C@@H](c2nc(-c3ccc4ccc(-c5ccccc5)nc4c3)c3c(N)nccn32)C1 [Linsitinib] + Nc1ncn([C@H]2C[C@H](O)[C@@H](CO)O2)c(=O)n1 [Decitabine] (partner 2 µM)
Outline: as §1

Ispinesib + Tozasertib = compound: Cc1ccc(C(=O)N(CCCN)[C@@H](c2nc3cc(Cl)ccc3c(=O)n2Cc2ccccc2)C(C)C)cc1 [Ispinesib] + Cc1cc(Nc2cc(N3CCN(C)CC3)nc(Sc3ccc(NC(=O)C4CC4)cc3)n2)n[nH]1 [Tozasertib] (partner 0.1 µM)
Outline: as §1

Cell Line	relative viability (Linsitinib + Bortezomib; first compound 0.01 µM)	relative viability (Linsitinib + Bortezomib; first compound 0.03162 µM)	relative viability (Linsitinib + Bortezomib; first compound 0.1 µM)	relative viability (Linsitinib + Bortezomib; first compound 0.3162 µM)	relative viability (Linsitinib + Bortezomib; first compound 1 µM)	relative viability (Linsitinib + Navitoclax; first compound 0.01 µM)	relative viability (Linsitinib + Navitoclax; first compound 0.03162 µM)	relative viability (Linsitinib + Navitoclax; first compound 0.1 µM)	relative viability (Linsitinib + Navitoclax; first compound 0.3162 µM)	relative viability (Linsitinib + Navitoclax; first compound 1 µM)	relative viability (Linsitinib + Decitabine; first compound 0.01 µM)	relative viability (Linsitinib + Decitabine; first compound 0.03162 µM)	relative viability (Linsitinib + Decitabine; first compound 0.1 µM)	relative viability (Linsitinib + Decitabine; first compound 0.3162 µM)	relative viability (Linsitinib + Decitabine; first compound 1 µM)	relative viability (Ispinesib + Tozasertib; first compound 0.001 µM)	relative viability (Ispinesib + Tozasertib; first compound 0.003162 µM)	relative viability (Ispinesib + Tozasertib; first compound 0.01 µM)	relative viability (Ispinesib + Tozasertib; first compound 0.03162 µM)	relative viability (Ispinesib + Tozasertib; first compound 0.1 µM)
HCC-15	1.04	0.938	1.1	0.297	0.785	0.657	0.698	0.693	0.489	0.62	0.63	0.509	0.61	0.28	0.368	0.48	0.414	0.505	0.281	0.227
HCC-44	0.841	0.775	0.874	0.497	0.529	1.01	0.839	0.85	0.718	0.794	0.922	0.977	0.919	0.552	0.746	0.928	1.05	1.09	0.679	0.209
HCC-78	0.511	0.645	0.507	0.525	0.395	0.882	0.889	0.711	0.789	0.661	–	0.818	0.649	0.588	0.682	0.444	0.426	0.521	0.449	0.407
HCC-366	1.06	1.02	1.1	0.959	0.906	1.04	0.782	1.12	0.921	0.996	0.35	0.354	0.349	0.293	0.326	0.172	0.13	0.663	0.0791	0.0441
HCC-827	1.04	1.04	0.934	0.827	1.01	1	1.04	1.01	–	0.974	0.165	0.427	0.287	–	0.34	0.43	0.534	0.43	0.446	0.372
HOP-62	0.857	0.488	1.03	–	0.379	1.08	1.12	1.13	0.636	0.823	0.194	0.241	0.194	–	0.201	0.373	0.47	0.389	0.449	0.406
LC-2-ad	1	1.1	1.02	0.664	0.636	0.368	0.406	0.486	0.339	0.368	0.776	0.719	0.864	0.726	0.742	0.42	0.52	0.384	0.322	0.241
LCLC-97TM1	0.316	0.488	0.578	0.236	0.18	0.39	0.396	0.552	0.264	0.484	0.251	0.261	0.24	0.204	0.245	0.196	0.143	0.215	0.173	0.191
LOU-NH91	0.436	0.504	0.581	0.429	0.478	0.786	0.651	0.707	0.686	0.678	0.813	0.806	0.803	0.715	0.782	0.677	0.638	0.76	0.584	0.347
LU99A	1.15	1.04	1.19	0.34	0.693	0.975	0.892	0.749	0.602	0.691	0.924	0.881	0.81	–	0.917	0.261	0.282	0.29	0.262	0.273
LXF-289	0.95	0.96	0.994	0.743	0.977	0.951	0.932	0.929	0.783	0.939	0.366	0.481	0.382	0.333	0.39	0.235	0.171	0.175	0.151	0.152
NCI-H23	0.96	1.17	1.06	0.681	0.589	0.811	0.854	0.761	0.581	0.652	0.305	0.314	0.322	0.264	0.298	0.428	0.414	0.74	0.33	0.272
NCI-H322M	1.24	1.12	1.44	0.922	1.19	1.3	1.4	1.25	1.23	1.27	0.68	0.818	0.719	0.757	0.674	0.531	0.275	0.445	0.333	0.396
NCI-H441	0.398	0.428	0.455	0.586	0.413	0.803	0.795	1.12	0.397	0.439	0.246	0.26	0.223	0.212	0.257	0.681	0.603	0.673	0.258	0.341
NCI-H460	1.07	1.07	1.14	0.92	1.07	1.08	0.97	1.25	1.01	1.12	0.497	0.483	0.511	–	0.424	0.4	0.577	0.503	0.417	0.0671
NCI-H520	0.666	0.331	0.754	–	0.62	1.15	0.685	1.1	–	0.893	0.456	0.59	0.501	–	0.555	0.419	0.466	0.41	0.499	0.422

Cell Line	relative viability (Linsitinib + Bortezomib; first compound 0.01 µM)	relative viability (Linsitinib + Bortezomib; first compound 0.03162 µM)	relative viability (Linsitinib + Bortezomib; first compound 0.1 µM)	relative viability (Linsitinib + Bortezomib; first compound 0.3162 µM)	relative viability (Linsitinib + Bortezomib; first compound 1 µM)	relative viability (Linsitinib + Navitoclax; first compound 0.01 µM)	relative viability (Linsitinib + Navitoclax; first compound 0.03162 µM)	relative viability (Linsitinib + Navitoclax; first compound 0.1 µM)	relative viability (Linsitinib + Navitoclax; first compound 0.3162 µM)	relative viability (Linsitinib + Navitoclax; first compound 1 µM)	relative viability (Linsitinib + Decitabine; first compound 0.01 µM)	relative viability (Linsitinib + Decitabine; first compound 0.03162 µM)	relative viability (Linsitinib + Decitabine; first compound 0.1 µM)	relative viability (Linsitinib + Decitabine; first compound 0.3162 µM)	relative viability (Linsitinib + Decitabine; first compound 1 µM)	relative viability (Ispinesib + Tozasertib; first compound 0.001 µM)	relative viability (Ispinesib + Tozasertib; first compound 0.003162 µM)	relative viability (Ispinesib + Tozasertib; first compound 0.01 µM)	relative viability (Ispinesib + Tozasertib; first compound 0.03162 µM)	relative viability (Ispinesib + Tozasertib; first compound 0.1 µM)
NCI-H596	1.12	0.996	0.974	0.872	1.06	0.835	1.01	0.938	0.805	0.931	1.03	1.06	1.11	0.976	1.01	0.956	0.86	0.916	0.945	0.432
NCI-H647	1.03	1.12	1.07	–	0.811	1.24	1.12	1.18	–	1.05	0.39	0.524	0.395	0.405	0.43	0.323	0.201	0.0519	0.217	0.303
NCI-H727	0.86	0.856	0.948	0.392	0.501	0.406	0.539	0.376	0.19	0.184	0.671	1.05	0.752	0.58	0.63	0.598	0.556	0.647	0.621	0.668
NCI-H838	0.809	0.898	0.755	0.153	0.385	1.14	1.12	1.21	0.875	0.986	0.462	0.581	0.452	0.284	0.405	0.275	0.285	0.284	0.287	0.257
NCI-H1355	1.19	1.25	1.18	0.748	0.79	0.888	0.868	0.881	0.729	0.659	0.378	0.353	0.334	0.309	0.317	0.566	0.608	0.548	0.503	0.486
NCI-H1437	0.561	0.507	0.545	0.302	0.38	1.03	0.994	1.1	1.01	1.02	0.541	0.551	0.555	0.4	0.599	0.449	0.442	0.434	0.378	0.272
NCI-H1650	0.208	0.202	0.184	0.182	0.223	1.33	1.36	1.29	0.743	1.1	0.571	0.449	0.415	0.325	0.361	0.382	0.364	0.397	0.139	0.257
NCI-H1651	0.954	0.976	0.792	0.82	0.916	0.978	1.1	0.925	0.958	0.981	0.316	0.744	0.518	0.516	0.597	0.692	0.776	0.968	0.824	0.234
NCI-H1666	0.675	0.798	0.774	0.348	0.308	0.994	0.867	0.939	0.549	0.646	0.622	0.79	0.732	0.521	0.602	0.56	0.601	0.613	0.542	0.454
NCI-H1734	0.851	0.962	1.01	0.665	0.643	0.77	0.865	0.925	0.821	0.784	0.512	0.502	0.463	0.516	0.487	0.258	0.121	0.25	0.254	0.218
NCI-H1755	0.939	0.882	0.981	0.661	0.794	0.974	1.04	0.986	0.839	0.905	0.719	0.856	0.719	0.559	0.702	0.529	0.627	0.595	0.638	0.46
NCI-H1915	0.948	0.979	0.961	0.918	0.671	0.813	0.811	0.81	0.681	0.781	0.272	0.312	0.266	0.247	0.263	0.444	0.528	0.498	0.462	0.315
NCI-H1975	0.332	0.348	0.373	0.404	0.296	1.08	0.941	1.04	1.12	0.8	0.375	0.452	0.376	0.34	0.363	0.964	0.956	0.795	0.557	0.215
NCI-H1993	1.26	1.29	1.32	0.797	0.695	0.937	0.902	0.839	1.01	0.6	0.646	0.564	0.473	0.506	0.499	0.54	0.509	0.574	0.519	0.588
NCI-H2009	1.01	0.926	1.07	0.185	0.898	1.15	1.24	1.22	1.01	1.2	0.36	0.4	0.366	0.359	0.396	0.788	0.837	0.786	0.706	0.489
NCI-H2023	0.876	0.724	1	0.239	0.602	1.02	0.628	1.07	0.839	0.87	0.213	–	0.239	0.196	0.243	0.378	0.399	0.378	0.211	0.202

Source: the supplement of paper PMC10307832
